Data taken from patent US8790687B2, “Triterpene compounds which are effective on improvement of brain function” (priority 2003, dated 2014).

How the values were obtained:
mice = experiment: Passive avoidance test, scopolamine-induced memory failure; assay type: in vivo; settings: scopolamine (1 mg/kg) group = 0%; for memory improvement / prevention activity to memory failure: passive avoidance latency, control without scopolamine and drugs = 100%, oral single administration, dose of compound not given
Text: A shuttle box (50×15×40 cm) was used as an experimental device. The box was divided into two rooms by a guillotine door, where one of which was bright by illumination while the other was dark by black cloth, giving rise to two different illumination effects. Firstly, mice were placed into a bright room, the bright room was kept lighted and the guillotine door was kept open. The mice entered the dark room in 20 sec in accordance with their negative phototaxis and the guillotine door was kept closed upon the entrance. The latency period in which a mouse enters the dark room from the bright room was measured in a manner described above. On the first day of the test, all mice were subject to a training trial for 20-sec latency period. Next day, mice subject to the training trial were again placed in the bright room and the bright room was then kept lighted to render mice to enter the dark room. At this time, the electric shock of 0.8 mA was imposed for 3 sec by using an electric grid equipped on the bottom of the dark room to impose the electric shock on the sole of mice feet. After 24 hr of such acquisition trial, mice were again placed in the bright room and the bright room was then kept lighted to induce mice to enter the dark room. At this time, normal mice hesitated to enter the dark room due to the memory about the shock of the previous day. […] The control not subject to the administration of scopolamine and drugs was considered 100% and the group subject to the administration of scopolamine (1 mg/kg), known to result in the failure of memory through the inhibition of transmission of neurotransmitters, was considered 0%.

in vivo = settings: male, ICR, mouse, in vivo, po
Text: (§1) Furthermore, for 2 weeks after the administration, the death rate, general conditions and body weight of mice were examined and abnormality of organs was observed via autopsy.

ICR mice = experiment: in vivo; settings: oral; for disorders (general conditions): all dosages (2.0 g/kg, 680, 230, 75 mg/kg); for disorders (general conditions) / results of autopsy (abnormality of organs): ICR mice; for results of autopsy (abnormality of organs): autopsy after 2 weeks observation, versus control group; for LD10: seven times in 1 week, male ICR mice, observed 2 weeks
Text: as §1

| SMILES | memory improvement / prevention activity to memory failure (mice) [%] | LD50 (in vivo) [mg/kg] | disorders (general conditions) (ICR mice) | results of autopsy (abnormality of organs) (ICR mice) | LD10 (ICR mice) [mg/kg] | prevention efficacy to memory failure (mice; positive control, oral administration 30 mg/kg, control = 100%) [%] |
| --- | --- | --- | --- | --- | --- | --- |
| CC1(C)CCC2(C(=O)O)CCC3(C)C(=CCC4C5(C)CCC(O)C(C)(CO)C5CCC43C)C2C1 (stereo not drawn) [hederagenine] | 41.1 | ≥ 5000 | no disorders | not different from the control group | 750 |  |
| CC1(C)CC[C@]2(C(=O)O)CC[C@]3(C)C(=CC[C@@H]4[C@@]5(C)CC[C@H](O)C(C)(C)[C@@H]5CC[C@]43C)[C@@H]2C1 [oleanolic acid] | 43.3 | ≥ 5000 |  | not different from the control group | 750 |  |
| Nc1c2c(nc3ccccc13)CCCC2 [tacrine, reference compound] |  |  |  |  |  | 35 |
| C[C@H]1[C@H](C)CC[C@]2(C(=O)O)CC[C@]3(C)C(=CC[C@@H]4[C@@]5(C)CC[C@H](O)C(C)(C)[C@@H]5CC[C@]43C)[C@H]12 [ursolic acid] | 37.0 | ≥ 5000 | no disorders | not different from the control group | 750 |  |
